Laboratory results taken from patent US9926354B2, “Amyloid precursor protein (APP) based Ã#-secretase inhibitor peptides, and methods of use” (UNIVERSITY OF SOUTH FLORIDA, priority 2014, dated 2018).

Key:
BACE1 = BACE1 (Homo sapiens, UniProt P56817); assay: BACE1 activity assay (FRET, cell-free); assay type: biochemical; design: purchased Pan Vera Co., Madison, Wis., USA; settings: peptide final concentration 20 μM, 90 minutes, room temperature
Procedure: BACE1 Activity Assay—The BACE1 inhibiting activity of APP-based BACE1 site binding peptides were determined using a fluorescence resonance energy transfer (FRET) assay (Pan Vera Co., Madison, Wis., USA), which employs a recombinant baculovirus-expressed BACE1 and a specific substrate (Rh-[…]-quencher) that is based on the APPswe mutation. This specific peptide substrate becomes highly fluorescent upon enzymatic cleavage. A mixture of 10 μL of BACE1 (1.0 U/mL in 50 mM Tris, pH7.5, 10% glycerol), 10 μL of FRET-substrate, and 10 μL of the various APP-based BACE1 site binding peptides (final concentration 20 μM) were incubated for 90 minutes in the dark at room temperature. Then, 10 μL of BACE1 stop buffer (2.5 M sodium acetate) was added to the mixture. Fluorescence was read using a fluorometer, with excitation at 545 nm and emission at 585 nm.
As a required enzyme for the generation of neurotoxic Aβ from APP, BACE1 is well established as an important mediator of AD β-amyloid pathology. As such, it has become an important target for new disease modifying therapeutics. However, since BACE1 also has important physiological roles, abolishment of the enzyme or its activity may lead to deleterious side effects as evidenced by numerous failed clinical trials discussed previously. […] Since previous studies have established a close relationship between α-helix structure and peptide-protein (or protein-protein) interactions (Azzarito, 2013; Rao et al., 2013), several APP based peptides were synthesized that might serve as a preferable substrate for BACE1. Importantly, these peptides were free of the Aβ-containing segment and, thus, cannot be amyloidogenic. In theory, these could be used to “hijack” the BACE1 processing of endogenous APP and lead to a decrease in cerebral Aβ. These BACE1 substrates and controls were incubated with recombinant BACE1 and percent of inhibition of the enzyme was calculated. […] These findings indicate that the α-helical TAT fusion domain may help to promote selective APPsweBBP proteolysis by BACE1, yielding substrate competition against human wild-type APP.

[1] = test system: CHO cells over-expressing human wild-type APP (CHO/APPwt); assay: Aβ and sAPPα production in cultured media of CHO/APPwt cells by ELISA (24 hours); assay type: cell-based, Chinese hamster; settings: 20 μg/mL
Procedure: (§1) Cell Culture—Chinese hamster ovary (CHO) cells engineered to express wild-type human APP (CHO/APPwt cells) or Swedish mutant human APP (CHO/APPswe cells) were kindly provided by Dr. Stefanie Hahn and Dr. Sascha Weggen (University of Heinrich Heine, Dusseldorf, Germany). As described previously (Obregon et al., 2012), these cells were cultured in Dulbecco's modified Eagle's medium (DMEM) with 10% fetal bovine serum (FBS), 1 mM sodium pyruvate, and 100 units/mL of penicillin and streptomycin.
To confirm the binding of APPsweBBP with BACE1, CHO/APPwt cells were plated in 8-well chambers (5×10^5/well), incubated with TAT-APPsweBBP-biotin or APPsweBBP-biotin at 20 μM for 30 minutes, fixed with 4% paraformaldehyde for 20 minutes, washed and permeabilized with 0.5% Triton X-100. Following application of blocking buffer, these cells were stained with mouse anti-BACE1 and rabbit anti-biotin antibodies overnight at 4° C. for immunocytochemistry analysis. […] The cultured media were collected for Aβ analysis by enzyme-linked immunosorbent assay (ELISA) and sAPPα analysis by ELISA and Western blot (WB). Cell lysates were also prepared for analysis of APP amyloidogenic processing by WB.
(§2) ELISA—Mouse brains were homogenized in ice-cold lysis buffer for 30 seconds using a Minilys tissue homogenizer (Bertin Technologies, Montigny-le-Bretonneux, France) set at high speed, allowed to stand for 15 minutes at 4° C., and centrifuged at 15,000 rpm for 30 minutes. Soluble Aβ1-40/42 species and sAPPα were directly detected in cultured cell media or brain homogenates using the Aβ1-40/42 (Invitrogen) and sAPPα ELISA kits (IBL-America, Minneapolis, Minn., USA).
(§3) To further examine the ability of the Swedish mutant APP BACE1 binding peptide/Tat fusion peptides to decrease Aβ production, CHO cells overexpressing either human wild-type APP (CHO/APPwt cells) or Swedish mutant APP (hereinafter referred to as “CHO/APPswe cells”) are treated with a variety of APP-based BACE1 inhibitor peptides, as shown in Table 1 and Table 2. Aβ production is determined using ELISA.

[2] = test system: CHO cells over-expressing human Swedish mutant APP (CHO/APPswe); assay: Aβ and sAPPα production in cultured media of CHO/APPswe cells by ELISA; assay type: cell-based, Chinese hamster; settings: 20 μg/mL, 24 hours
Procedure: as §1
To confirm the binding of APPsweBBP with BACE1, CHO/APPwt cells were plated in 8-well chambers (5×10^5/well), incubated with TAT-APPsweBBP-biotin or APPsweBBP-biotin at 20 μM for 30 minutes, fixed with 4% paraformaldehyde for 20 minutes, washed and permeabilized with 0.5% Triton X-100. Following application of blocking buffer, these cells were stained with mouse anti-BACE1 and rabbit anti-biotin antibodies overnight at 4° C. for immunocytochemistry analysis. In order to determine the inhibitory effects of TAT-APPsweBBP on BACE1-mediated APP β-cleavage and subsequent Aβ production, both CHO/APPwt and CHO/APPswe cells were plated in 24 well-plates (3×10^5/well) and treated with TAT-APPsweBBP at 0-20 μM for 24 hours. The cultured media were collected for Aβ analysis by enzyme-linked immunosorbent assay (ELISA) and sAPPα analysis by ELISA and Western blot (WB). Cell lysates were also prepared for analysis of APP amyloidogenic processing by WB.
as §2, §3

CHO/APPwt cells = assay: Aβ production in CHO/APPwt cells by ELISA (Example 1, 4 hours); assay type: cell-based, Chinese hamster; settings: 20 μg/mL
Procedure: To examine the effects of various Swedish Tat fusion peptides on Aβ production, human wild-type amyloid precursor protein (APP) is overexpressed in Chinese hamster ovary cells (hereinafter referred to as CHO/APPwt cells), and the cells are treated with either PBS control (Phosphate buffered saline); Swedish peptide-1 (SwePep-1), […] (also referred herein as “APPsweBBP1”) (SEQ ID NO: 5); Swedish peptide-2 (SwePep-2) (also referred herein as “APPsweBBP”), […] (SEQ ID NO: 1); Swedish Tat fusion peptide-1 (SweTatPep-1), […] (also referred herein as “APPsweBBP/TTD1”) (SEQ ID NO: 6); or Swedish Tat fusion peptide-2 (SweTatPep-2) (also referred herein as “APPsweBBP/TTD2” and “TAT-APPsweBBP”), […] (SEQ ID NO: 3). APPsweBBP is a truncated fragment of APPswe spanning 12 amino acid residues (Glu665-Arg676). TAT, an 11-amino acid-residue protein-transduction domain derived from the HIV-1 transactivator of transcription protein, was conjugated at the C-terminus of APPsweBBP and biotin was conjugated at the N-terminus.
Following treatment, Aβ production is determined utilizing ELISA and the results illustrated in FIG. 1A. SweTatPep-2, SwePep-2, SwePep-1 and SweTatPep-1 each reduce Aβ40,42 by 63-65%, 30-33%, 31-34% and 37-38%, respectively.

Sequence of BACE1 (P56817 46-501): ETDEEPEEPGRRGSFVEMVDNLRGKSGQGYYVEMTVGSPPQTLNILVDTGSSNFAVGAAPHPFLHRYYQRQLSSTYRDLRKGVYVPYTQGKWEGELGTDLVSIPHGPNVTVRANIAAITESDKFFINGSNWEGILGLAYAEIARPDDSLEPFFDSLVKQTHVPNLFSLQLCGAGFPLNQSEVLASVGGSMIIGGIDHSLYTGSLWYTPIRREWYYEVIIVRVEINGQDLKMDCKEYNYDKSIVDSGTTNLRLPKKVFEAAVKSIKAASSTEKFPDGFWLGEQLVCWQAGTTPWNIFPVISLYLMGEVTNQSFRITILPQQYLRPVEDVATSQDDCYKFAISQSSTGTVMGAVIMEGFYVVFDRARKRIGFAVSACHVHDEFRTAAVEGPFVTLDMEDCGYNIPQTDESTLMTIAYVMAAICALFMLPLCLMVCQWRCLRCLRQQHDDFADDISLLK

| Sequence | % of inhibition (mean ± SD) of BACE1 (BACE1) [%] | Secreted Aβ40 (ng/mg; mean ± SD) [1] [ng/mg] | Secreted Aβ42 (ng/mg; mean ± SD) [1] [ng/mg] | Secreted sAPPα (ng/mg; mean ± SD) [1] [ng/mg] | Secreted Aβ40 (ng/mg; mean ± SD) [2] [ng/mg] | Secreted Aβ42 (ng/mg; mean ± SD) [2] [ng/mg] | Secreted sAPPα (ng/mg; mean ± SD) [2] [ng/mg] | reduction of Aβ40,42 (CHO/APPwt cells) |
| --- | --- | --- | --- | --- | --- | --- | --- | --- |
| IKTEEISEVKMDAEFR (listed as Homo sapiens) [APPwtBBP1] |  | 11.23 ± 0.89 | 1.23 ± 0.043 | 4874.42 ± 174.56 | 62.43 ± 9.43 | 8.91 ± 0.83 | 217.35 ± 17.32 |  |
| IKTEEISEVNLDAEFR (listed as Homo sapiens) [APPsweBBP1] |  | 9.67 ± 0.84 | 1.07 ± 0.054 | 4711.83 ± 201.45 | 57.23 ± 11.65 | 9.01 ± 1.07 | 211.43 ± 18.31 | 31-34% |

Continued, in another order:

| % of inhibition (mean ± SD) of BACE1 (BACE1) [%] | Sequence | Secreted Aβ40 (ng/mg; mean ± SD) [1] [ng/mg] | Secreted Aβ42 (ng/mg; mean ± SD) [1] [ng/mg] | Secreted sAPPα (ng/mg; mean ± SD) [1] [ng/mg] | Secreted Aβ40 (ng/mg; mean ± SD) [2] [ng/mg] | Secreted Aβ42 (ng/mg; mean ± SD) [2] [ng/mg] | Secreted sAPPα (ng/mg; mean ± SD) [2] [ng/mg] | reduction of Aβ40,42 (CHO/APPwt cells) |
| --- | --- | --- | --- | --- | --- | --- | --- | --- |
| 16.23 | EISEVKMDAEFR (listed as Homo sapiens) [APPwtBBP] | 10.89 ± 0.76 | 1.18 ± 0.051 | 4762.21 ± 164.89 | 59.84 ± 11.23 | 9.78 ± 1.07 | 201.65 ± 11.54 |  |
| 4.89 ± 0.06 | EVKMDAEFR (listed as Homo sapiens) [APPwtBBP3] | 11.43 ± 1.01 | 1.09 ± 0.061 | 4699.78 ± 178.43 | 61.36 ± 8.34 | 10.93 ± 1.98 | 199.83 ± 14.65 |  |
| 14.32 ± 0.04 | EVNLDAEFR (listed as Homo sapiens) [APPsweBBP3] | 10.23 ± 0.73 | 0.92 ± 0.041 | 4709.43 ± 123.74 |  | 7.12 ± 0.84 | 231.26 ± 14.28 |  |
